Among the test systems are COLO 205 colon; HT29 colon; KM12 colon; M14 melanoma; NCI-H226 lung; OVCAR-4 ovarian; SK-MEL-2 melanoma; TK-10 renal; HOP-62 NSCLC; NCI-H522 lung.
Assay in all cases: NCI tumour cell line growth inhibition, 48 h

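Five compound concentrations were applied to cells in 96-well plates for 48 hours; endpoints were derived by simple linear interpolation of the resulting dose-response curve. GI50 is the concentration that inhibits growth by half. TGI: total growth inhibition.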

The source of these data is PubChem BioAssay (NCI).

Turning to `CC(=O)Nc1ccc(S(=O)(=O)N/N=C/c2cc(I)cc([N+](=O)[O-])c2O)cc1`, the TGI in the assay on COLO 205 colon, in the assay on HT29 colon, in the assay with KM12 colon, in the assay on M14 melanoma, with NCI-H226 lung and in the assay on OVCAR-4 ovarian was over 100 µM each time. The TGI with SK-MEL-2 melanoma and with TK-10 renal was over 100 µM throughout.
With `Cc1ccccc1C(C#N)/C(=N/NC(N)=S)C(=O)Nc1c(C)cccc1C` (stereo unspecified), the TGI in the assay with COLO 205 colon, in the assay on HOP-62 NSCLC, with HT29 colon, in the assay on KM12 colon, in the assay with M14 melanoma and in the assay on NCI-H226 lung was over 100 µM in each case. Besides, the TGI in the assay on OVCAR-4 ovarian, in the assay on SK-MEL-2 melanoma and with TK-10 renal was over 100 µM each time.
Consider `C#CCOCCCC(=O)O`, for which the TGI in the assay with COLO 205 colon, in the assay on HOP-62 NSCLC, with HT29 colon, in the assay with M14 melanoma, in the assay with NCI-H226 lung and in the assay with OVCAR-4 ovarian was over 100 µM throughout. For the same compound, the TGI in the assay on SK-MEL-2 melanoma and in the assay with TK-10 renal was over 100 µM each time.
Take `Cc1ccc(S(=O)OC2c3ccccc3Cc3ccccc32)cc1` (stereo unspecified): the TGI in the assay on COLO 205 colon was 31.5 µM; in the assay on HOP-62 NSCLC, 34.3 µM; in the assay with HT29 colon it was over 100 µM; in the assay with KM12 colon it was 39.2 µM; with M14 melanoma, 33.8 µM; in the assay on NCI-H226 lung, 37.1 µM. Further, the TGI with NCI-H522 lung stood at 27.1 µM; in the assay on OVCAR-4 ovarian, 33.2 µM; with TK-10 renal, 64.3 µM.
For the compound `S=c1sc2sc(=S)sc2s1`, the TGI is over 100 µM in the assay on COLO 205 colon; over 100 µM in the assay with HOP-62 NSCLC; 78.9 µM in the assay with HT29 colon; over 100 µM in the assay on KM12 colon; 59 µM in the assay on M14 melanoma; over 100 µM with NCI-H522 lung. For the same compound, the TGI in the assay with OVCAR-4 ovarian, with SK-MEL-2 melanoma and with TK-10 renal was over 100 µM throughout.
As for `CCOc1ccc(N=C2NC(=O)C(CC(=O)Nc3ccc(Cl)cc3Cl)S2)cc1` (stereo unspecified), the TGI in the assay with COLO 205 colon, in the assay with HOP-62 NSCLC, with HT29 colon, with KM12 colon, in the assay on M14 melanoma and with OVCAR-4 ovarian was over 100 µM in each case. Besides, the TGI with SK-MEL-2 melanoma and in the assay with TK-10 renal was over 100 µM in each case.
As to `O=C(O)c1ccc(NCn2nc(-c3ccccc3O)oc2=S)cc1O`, the GI50 with COLO 205 colon is 42.6 µM; in the assay with HOP-62 NSCLC, over 100 µM; in the assay with HT29 colon, over 100 µM; in the assay with KM12 colon it was over 100 µM; with M14 melanoma, over 100 µM; with NCI-H226 lung, 21 µM. Also, the GI50 with NCI-H522 lung was over 100 µM; in the assay on SK-MEL-2 melanoma, 46.8 µM; with TK-10 renal, over 100 µM. Moreover, the TGI in the assay with COLO 205 colon, in the assay on HOP-62 NSCLC, in the assay on HT29 colon, in the assay with KM12 colon, in the assay with M14 melanoma and in the assay on NCI-H226 lung was over 100 µM each time. Besides, the TGI in the assay with NCI-H522 lung, in the assay with SK-MEL-2 melanoma and in the assay with TK-10 renal was over 100 µM throughout.
With `OC1CCC(COC(c2ccccc2)(c2ccccc2)c2ccccc2)O1` (stereo unspecified), the TGI in the assay on COLO 205 colon stood at 30.8 µM; with HOP-62 NSCLC, 33.9 µM; with HT29 colon it was 33.7 µM; with KM12 colon it was 34.3 µM; in the assay on M14 melanoma, 32.7 µM; in the assay on NCI-H226 lung it was 45.4 µM. The TGI in the assay with NCI-H522 lung was 31.8 µM; in the assay on SK-MEL-2 melanoma, 42.6 µM; in the assay with TK-10 renal, over 10 µM.
With `Fc1ccc(-c2nn3c(COc4ccccc4Cl)nnc3s2)cc1Oc1ccccc1`, the GI50 in the assay on COLO 205 colon was 46.4 µM; in the assay on HOP-62 NSCLC, 19.4 µM; in the assay with HT29 colon, 44.9 µM; with KM12 colon it was 43.1 µM; with M14 melanoma it was 24.4 µM; in the assay with NCI-H226 lung, 32.7 µM. Further, the GI50 in the assay with NCI-H522 lung is 29.6 µM; in the assay on OVCAR-4 ovarian, 72.2 µM; in the assay on TK-10 renal it was 20.5 µM. The TGI in the assay on COLO 205 colon is over 100 µM; in the assay on HOP-62 NSCLC, 40.1 µM; in the assay with HT29 colon, over 100 µM; in the assay with KM12 colon, over 100 µM; in the assay with M14 melanoma it was 54.7 µM; in the assay with NCI-H226 lung, over 100 µM. Also, the TGI in the assay on NCI-H522 lung was over 100 µM; in the assay on OVCAR-4 ovarian it was over 100 µM; in the assay on TK-10 renal, 47.1 µM.
Regarding `Cc1ccc(NC(=O)CC2SC(=Nc3cccc(Cl)c3C)NC2=O)cc1` (stereo unspecified), the TGI with COLO 205 colon, in the assay on HOP-62 NSCLC, with HT29 colon, in the assay with KM12 colon, with M14 melanoma and with OVCAR-4 ovarian was over 100 µM each time. In addition, the TGI with SK-MEL-2 melanoma and in the assay on TK-10 renal was over 100 µM throughout.
Turning to `CC(=O)NS(=O)(=O)c1ccc(-n2nc(-c3ccccc3)cc2-c2cc(O)ccc2O)cc1`, the GI50 in the assay on COLO 205 colon was 44 µM; with HOP-62 NSCLC, over 100 µM; in the assay with HT29 colon, over 100 µM; in the assay on KM12 colon, over 100 µM; in the assay on M14 melanoma it was 31.4 µM; in the assay on NCI-H226 lung, over 100 µM. Also, the results for the GI50 with NCI-H522 lung, in the assay on SK-MEL-2 melanoma and in the assay with TK-10 renal were 45 µM, over 100 µM and 10.9 µM, respectively. For the same compound, the TGI with COLO 205 colon, in the assay on HOP-62 NSCLC, with HT29 colon, in the assay on KM12 colon, in the assay on M14 melanoma and in the assay with NCI-H226 lung was over 100 µM throughout. The TGI in the assay on NCI-H522 lung, in the assay with SK-MEL-2 melanoma and in the assay with TK-10 renal was over 100 µM in each case.
For `Cc1cc2c(=O)cc(-c3ccc(C(=O)O)cc3)oc2c(C(N)=O)c1C`, the TGI with COLO 205 colon, with HOP-62 NSCLC, with HT29 colon, in the assay with KM12 colon, in the assay on M14 melanoma and in the assay on NCI-H522 lung was over 100 µM each time. Moreover, the TGI in the assay with OVCAR-4 ovarian, with SK-MEL-2 melanoma and in the assay on TK-10 renal was over 100 µM in each case.
